For one data set, the system named is Sarcina lutea IAM1009. In words: in vitro MIC, agar streak method. The data set is classed as cell-based. The conditions noted are these: Micrococcus luteus, IAM1009, Sarcina lutea IAM-1009; Heart infusion agar; read-out: MIC.
For data set [1], the system named is Escherichia coli NIHJ IFO-12734. Description: in vitro MIC, agar streak method. It is filed as cell-based. The conditions noted are these: IFO12734; Escherichia coli NIHJ IFO-12734; Heart infusion agar; read-out: MIC. From the text:
(§1) | ^(1) Heart infusion agar

In data set [2] the test system is Bacillus subtilis IAM-1027. Description: in vitro MIC, agar streak method. The data set is classed as cell-based. The conditions noted are these: IAM1027; Bacillus subtilis IAM-1027; Heart infusion agar; read-out: MIC.
Description: as §1

Data set [3] relates to Pseudomonas aeruginosa IFO-12689. In words: in vitro MIC, agar streak method. It is filed as cell-based. Particulars: IFO12689, Heart infusion agar.
Description: as §1

Data set [4] deals with Escherichia coli K-12 IAM-1264. In words: in vitro MIC, agar streak method. The conditions noted are these: IAM1264; Escherichia coli K-12 IAM-1264; Heart infusion agar; read-out: MIC. The data set is classed as cell-based.
Description: as §1

For data set [5], the system named is Micrococcus flavus ATCC-10240. Description: in vitro MIC, agar streak method. The data set is classed as cell-based. The conditions noted are these: Heart infusion agar, read-out: MIC.
Description: as §1

The subject of data set [6] is Staphylococcus aureus 209P Stf. Description: in vitro MIC, agar streak method. It is filed as cell-based. Particulars: Heart infusion agar.
Description: as §1

Data set [7] deals with Mycobacterium smegmatis IFO-13167. Description: in vitro MIC, agar streak method. The conditions noted are these: Mycolicibacterium smegmatis, IFO13167; Mycobacterium smegmatis IFO-13167; Heart infusion agar; read-out: MIC. The data set is classed as cell-based.
Description: as §1

In data set [8] the test system is Candida tropicalis ATCC-13803. Description: in vitro MIC, agar streak method. Particulars: ATCC13803; Candida tropicalis ATCC-13803; Sabouraud dextrose agar; read-out: MIC. It is filed as cell-based. The source says:
(§2) | ^(2) Sabouraud dextrose agar

Data set [9] has as its system Candida albicans ATCC-10231. Description: in vitro MIC, agar streak method. The data set is classed as cell-based. Particulars: ATCC10231; Candida albicans ATCC-10231; Sabouraud dextrose agar; read-out: MIC.
Description: as §2

The next data set in a line: in vivo. The conditions noted are these: mouse, ip, mice, single i.p. injection, judged 72 hours after, read-out: acute intraperitoneal LD50. On the procedure:
The acute intraperitoneal LD50 in mice judged 72 hours after a single injection of the antibiotics is about 90 mg/kg for auramycin C, auramycin D, sulfurmycin C and sulfurmycin D, 40~80 mg/kg for auramycin G and sulfurmycin G and 20~40 mg/kg for auramycin E and sulfurmycin E.

The subject of data set [10] is Staphylococcus aureus 209P IAM-1011. In words: in vitro MIC, agar streak method. Particulars: Heart infusion agar, read-out: MIC. The data set is classed as cell-based.
The next data set relates to P388 leukaemia. In words: Antitumor effect against P388 leukaemia in CDF1 mice. It is filed as in vivo. The conditions noted are these: Mus musculus, ip, days 1, 5 and 9, 1×10^6 P388 cells i.p., CDF1 mice, read-out: Mean survival (T/C, %); for response vs control in vivo at 1.88 mg/kg: 1.88 mg/kg/day i.p.; for response vs control in vivo at 3.75 mg/kg: 3.75 mg/kg/day i.p.; for response vs control in vivo at 7.5 mg/kg: 7.5 mg/kg/day i.p.; for response vs control in vivo at 15 mg/kg: 15.0 mg/kg/day i.p. On the procedure: The anthracycline glycosides provided by the present invention were tested against P388 leukaemia in mice. When CDF1 mice are inoculated with 1×10^6 cells of P388 intraperitoneally and each of the antibiotics is administered intraperitoneally on days 1, 5 and 9, the survival time of the treated mice is prolonged as shown in Table 5 hereinafter.

≈ marks a conversion by molar mass, not a printed value. Where two headings read alike, the source gives them in different places. Where only a bound is given, the exact number is not on record here.

For `COC(=O)C1c2cc3c(c(O)c2C(OC2CC(N(C)C)C(O)C(C)O2)CC1(O)CC(C)=O)C(=O)c1c(O)cccc1C3=O` (centres unmarked) [Sulfurmycin D], the MIC with Sarcina lutea IAM1009 is 25 µg/mL (≈ 41.8 µM); in data set [1], over 50 µg/mL; in data set [2], 12.5 µg/mL (≈ 20.9 µM); in data set [3], over 50 µg/mL; in data set [4], over 50 µg/mL; in data set [5] (Micrococcus flavus, ATCC10240, Micrococcus flavus ATCC-10240) it was 25 µg/mL (≈ 41.8 µM). Besides, the MIC in [6] is 25 µg/mL (≈ 41.8 µM); in [7], 6.25 µg/mL (≈ 10.5 µM); in data set [8], over 50 µg/mL; in data set [9], over 50 µg/mL; in [10] (Staphylococcus aureus), 25 µg/mL (≈ 41.8 µM). For the same compound, the 50% lethal dose (LD50) at 72 h in “in vivo” is about 90 mg/kg. Further, the response vs control in vivo at 1.88 mg/kg in the data set with P388 leukaemia came to 106%. Further, the response vs control in vivo at 3.75 mg/kg in the data set on P388 leukaemia was 135%. Besides, the response vs control in vivo at 7.5 mg/kg in the data set with P388 leukaemia came out at 128%. The response vs control in vivo at 15 mg/kg in the data set with P388 leukaemia worked out at 152%.
On to `COC(=O)C1c2cc3c(c(O)c2C(OC2CC(N(C)C)C(OC4CC(O)C(O)C(C)O4)C(C)O2)CC1(O)CC(C)=O)C(=O)c1c(O)cccc1C3=O` (centres unmarked) [Sulfurmycin C], for which the MIC was 6.25 µg/mL (≈ 8.59 µM) in the data set with Sarcina lutea IAM1009; over 50 µg/mL in [1]; 12.5 µg/mL (≈ 17.2 µM) in data set [2]; over 50 µg/mL in data set [3]; over 50 µg/mL in data set [4]; 6.25 µg/mL (≈ 8.59 µM) in data set [5] (ATCC10240, Micrococcus flavus ATCC-10240). Also, the MIC in [6] was 6.25 µg/mL (≈ 8.59 µM); in data set [7], 3.13 µg/mL (≈ 4.3 µM); in [8], over 50 µg/mL; in data set [9], over 50 µg/mL; in data set [10], 6.25 µg/mL (≈ 8.59 µM). Also, the LD50 at 72 h in “in vivo” was about 90 mg/kg. For the same compound, in the data set on P388 leukaemia, the response vs control in vivo at 1.88 mg/kg worked out at 131%. Besides, in the data set on P388 leukaemia, the response vs control in vivo at 3.75 mg/kg amounted to 141%. For the same compound, the response vs control in vivo at 7.5 mg/kg with P388 leukaemia worked out at 138%. The response vs control in vivo at 15 mg/kg in the data set on P388 leukaemia is 141%.

The record behind these values is US4401812A, “Anthracycline antibiotics” (Hoffmann-La Roche Inc., priority 1980, dated 1983).
